Test results reported in US11661437B2, “Steroid derivative regulators, method for preparing the same, and uses thereof” (priority 2018, dated 2023).

System: GABA-A receptor
Experiment: 35S-TBPS binding assay on rat cerebral cortex cell membrane
Design: species or system Sprague-Dawley rat
Conditions: 2 nM 35S-TBPS, GABA added, read-out: 35S-TBPS bindng test, IC50 on inhibiting the TBPS binding activity
Description: 1.2.1 Extraction of Cerebral Cortex Cell Membrane:
1. The cerebral cortex of male Sprague-Dawley rat was isolated.
2. A pre-chilled 0.32 M sucrose solution (one tablet of protease inhibitor was added per 100 ml) was added to the cerebral cortex (the volume of sucrose solution was 10 times the volume of the cerebral cortex). The mixture was crushed with a 50 ml glass tissue homogenizer in batches and mixed well.
3. The mixture was centrifuged at 1500 g, 4° C. for 10 minutes, and the supernatant was collected.
4. The mixture was centrifuged at 20000 g, 4° C. for 30 minutes, and the supernatant was discarded.
5. The precipitate was resuspended with the pre-chilled phosphate buffer saline (PBS) (one tablet of protease inhibitor was added per 100 ml). An average of 4 ml of PBS was added per rat, and the mixture was mixed well with a glass tissue homogenizer.
6. The mixture was centrifuged at 10000 g, 4° C. for 10 minutes, and the supernatant was discarded.
7. Steps 5 and 6 were repeated three times.
8. Finally, the precipitate was resuspended with 4 volumes of PBS. The resulting solution was dispensed, frozen in liquid nitrogen, and stored at −80° C.
9. The protein concentration was measured by the bicinchoninic acid (BCA) method.
1.2.2 ^35S-TBPS Binding Assay
1. 230 μL of PBS was added to each well of a well plate with 1.1 ml volume.
2. 60 μL of the cerebral cortex cell membrane (5 μg/μL) solution was added to each well, and the mixture was mixed well.
3. The test compound (3 μL per well) was added, and the plate was incubated at 25° C. for 5 minutes. The DMSO concentration was 1%. The initial compound concentration was 1 NM, and a 3-fold dilution in gradient was carried out to obtain a total of 8 gradients and 2 replicates. 1% DMSO was used as a negative control, and 10 μM P026-2 was used as a positive control.
4. GABA was added at a final concentration of […], and incubated at 25° C. for 5 minutes. 1 mM GABA solution was formulated, and 1.5 μL of the solution was added to each well.
5. ^35S-TBPS was added at a final concentration of 2 nM. The concentration of isotope mother solution was 9.7 μM. After dilution with PBS for 100 times, 6 μL of the diluted isotope solution was added to each well.
6. The plate was incubated at 4° C. for 20 hours.
7. The FilterMate GF/C plate was pre-treated with 0.5% PEI, and incubated at 4° C. for 1 hour.
8. The FilterMate GF/C plate was washed with Universal Harvester twice, 50 ml PBS each time.
9. The reaction solution was transferred to the GF/C plate, and each well was washed 4 times with 900 μL PBS.
10. The washed GF/C plate was placed at 55° C. and dried for 10 minutes.
11. 40 μL of scintillation solution was added to each well, and the CPM value was read with TopCount.
1.2.3 Experimental Data Processing Method:
In the experiment, the CPM (counts per minute) value was read with TopCount. According to the readings of the High control (DMSO) and the Low control (10 μM of the positive compound) experimental groups, the % inhibition was calculated based on the following formula: % Inhibition=100×(CPMHigh control−CPMSample)/(CPMHigh control−CPMLow control)
The IC50 of the compound was calculated according to the following 4-parameter nonlinear logic formula: Y=Bottom+(Top−Bottom)/(1+10^((Log IC50−X)*Hill Slope)),
The effect of the compound of the present invention on the TBPS binding activity was determined by the above test, and the measured IC50 values are shown in Table 1.

Question: With `C[C@@]1(O)CC[C@@]2(F)[C@H](CC[C@H]3[C@@H]4CC[C@H](C(=O)Cn5cc(C#N)c(C6CC6)n5)[C@@]4(C)CC[C@@H]32)C1` [Example 40, 3-Cyclopropyl-1-(2-((3R,5R,8S,9S,10R,13S,14S,17S)-10-fluoro-3-hydroxy-3,13-dimethylhexadecahydro-1H-cyclopenta[a]phenanthren-17-yl)-2-oxoethyl)-1H-pyrazole-4-carbonitrile] as the molecule, how does the IC50 read?
Answer: Its IC50 is 12 nM.

Question: For `C[C@@]1(O)CC[C@@]2(F)[C@H](CC[C@H]3[C@@H]4CC[C@H](C(=O)CNc5cnoc5)[C@@]4(C)CC[C@@H]32)C1` [Example 45, 1-((3R,5R,8S,9S,10R,13S,14S,17S)-10-Fluoro-3-hydroxy-3,13-dimethylhexadecahydro-1H-cyclopenta[a]phenanthren-17-yl)-2-(isoxazol-4-ylamino)ethan-1-one], which IC50 is on record?
Answer: The IC50 was 34.4 nM.

Question: `COc1ccc2nn(CC(=O)[C@H]3CC[C@H]4[C@@H]5CC[C@@H]6C[C@](C)(O)CC[C@]6(F)[C@H]5CC[C@]34C)nc2c1` [Example 46, 1-((3R,5R,8S,9S,10R,13S,14S,17S)-10-Fluoro-3-hydroxy-3,13-dimethylhexadecahydro-1H-cyclopenta[a]phenanthren-17-yl)-2-(5-methoxy-2H-benzo[d][1,2,3]triazol-2-yl)ethan-1-one] was tested. Which IC50 did it give?
Answer: The IC50 was 5.6 nM.

Question: Which IC50 does the source give for `COc1ccc2nnn(CC(=O)[C@H]3CC[C@H]4[C@@H]5CC[C@@H]6C[C@](C)(O)CC[C@]6(F)[C@H]5CC[C@]34C)c2c1` [Example 47, 1-((3R,5R,8S,9S,10R,13S,14S,17S)-10-Fluoro-3-hydroxy-3,13-dimethylhexadecahydro-1H-cyclopenta[a]phenanthren-17-yl)-2-(6-methoxy-1H-benzo[d][1,2,3]triazol-1-yl)ethan-1-one] here?
Answer: The IC50 was 7.3 nM.

Question: With `COc1ccc2c(c1)nnn2CC(=O)[C@H]1CC[C@H]2[C@@H]3CC[C@@H]4C[C@](C)(O)CC[C@]4(F)[C@H]3CC[C@]12C` [Example 48, 1-((3R,5R,8S,9S,10R,13S,14S,17S)-10-Fluoro-3-hydroxy-3,13-dimethylhexadecahydro-1H-cyclopenta[a]phenanthren-17-yl)-2-(5-methoxy-1H-benzo[d][1,2,3]triazol-1-yl)ethan-1-one] as the molecule, how does the IC50 read?
Answer: Its IC50 is 7.3 nM.

Question: Which IC50 does the source give for `C[C@@]1(O)CC[C@@]2(F)[C@H](CC[C@H]3[C@@H]4CC[C@H](C(=O)COc5cncnc5)[C@@]4(C)CC[C@@H]32)C1` [Example 49, 1-((3R,5R,8S,9S,10R,13S,14S,17S)-10-Fluoro-3-hydroxy-3,13-dimethylhexadecahydro-1H-cyclopenta[a]phenanthren-17-yl)-2-(pyrimidin-5-yloxy)ethan-1-one] here?
Answer: The IC50 was 48 nM.

Question: With `C[C@@]1(O)CC[C@@]2(F)[C@H](CC[C@H]3[C@@H]4CC[C@H](C(=O)Cn5cc(-c6ncco6)cn5)[C@@]4(C)CC[C@@H]32)C1` [Example 52, 1-((3R,5R,8S,9S,10R,13S,14S,17S)-10-Fluoro-3-hydroxy-3,13-dimethylhexadecahydro-1H-cyclopenta[a]phenanthren-17-yl)-2-(4-(oxazol-2-yl)-1H-pyrazol-1-yl)ethan-1-one] as the molecule, how does the IC50 read?
Answer: The IC50 was 23 nM.

Question: With `CSc1cnn(CC(=O)[C@H]2CC[C@H]3[C@@H]4CC[C@@H]5C[C@](C)(O)CC[C@]5(F)[C@H]4CC[C@]23C)c1` [Example 55, 1-((3R,5R,8S,9S,10R,13S,14S,17S)-10-Fluoro-3-hydroxy-3,13-dimethylhexadecahydro-1H-cyclopenta[a]phenanthren-17-yl)-2-(4-(methylthio)-1H-pyrazol-1-yl)ethan-1-one] as the molecule, how does the IC50 read?
Answer: Its IC50 is 42.5 nM.

Question: `C[C@@]1(O)CC[C@@]2(F)[C@H](CC[C@H]3[C@@H]4CC[C@H](C(=O)Cn5cc([N+](=O)[O-])cn5)[C@@]4(C)CC[C@@H]32)C1` [Example 58, 1-((3R,5R,8S,9S,10R,13S,14S,17S)-10-Fluoro-3-hydroxy-3,13-dimethylhexadecahydro-1H-cyclopenta[a]phenanthren-17-yl)-2-(4-nitro-1H-pyrazol-1-yl)ethan-1-one] was tested. Which IC50 did it give?
Answer: Its IC50 is 37.8 nM.

Question: For `CCOC(=O)c1cnn(CC(=O)[C@H]2CC[C@H]3[C@@H]4CC[C@@H]5C[C@](C)(O)CC[C@]5(F)[C@H]4CC[C@]23C)c1` [Example 59, Ethyl 1-(2-((3R,5R,8S,9S,10R,13S,14S,17S)-10-fluoro-3-hydroxy-3,13-dimethylhexadecahydro-1H-cyclopenta[a]phenanthren-17-yl)-2-oxoethyl)-1H-pyrazole-4-carboxylate], which IC50 is on record?
Answer: The IC50 was 9.4 nM.

Question: How did the IC50 turn out when `C[C@@]1(O)CC[C@@]2(F)[C@H](CC[C@H]3[C@@H]4CC[C@H](C(=O)Cn5cc(C(=O)N6CCC6)cn5)[C@@]4(C)CC[C@@H]32)C1` [Example 62, 2-(4-(Azetidine-1-carbonyl)-1H-pyrazol-1-yl)-1-((3R,5R,8S,9S,10R,13S,14S,17S)-10-fluoro-3-hydroxy-3,13-dimethylhexadecahydro-1H-cyclopenta[a]phenanthren-17-yl)ethan-1-one] was run?
Answer: The IC50 was 7.1 nM.

Question: For `C[C@@]1(O)CC[C@]2(F)C3CC[C@]4(C)[C@@H](C(=O)Cn5ncc(C6CC6)n5)CC[C@H]4[C@@H]3CC[C@@H]2C1` (stereo partly drawn) [Example 63, 2-(4-Cyclopropyl-2H-1,2,3-triazol-2-yl)-1-((3R,5R,8S,10R,13S,14S,17S)-10-fluoro-3-hydroxy-3,13-dimethylhexadecahydro-1H-cyclopenta[a]phenanthren-17-yl)ethan-1-one], which IC50 is on record?
Answer: The IC50 was 25.8 nM.

Question: For `C[C@@]1(O)CC[C@]2(F)C3CC[C@]4(C)[C@@H](C(=O)Cn5cc(C6CC6)nn5)CC[C@H]4[C@@H]3CC[C@@H]2C1` (stereo partly drawn) [Example 64, 2-(4-Cyclopropyl-1H-1,2,3-triazol-1-yl)-1-((3R,5R,8S,10R,13S,14S,17S)-10-fluoro-3-hydroxy-3,13-dimethylhexadecahydro-1H-cyclopenta[a]phenanthren-17-yl)ethan-1-one], which IC50 is on record?
Answer: The IC50 was 24.8 nM.

Question: With `C[C@]1(O)CC[C@@]2(F)[C@H](CC[C@H]3[C@@H]4CC[C@H](C(=O)CNS(=O)(=O)c5ccccc5)[C@@]4(C)CC[C@@H]32)C1` [Example 71, N-(2-((3S,5R,8S,9S,10R,13S,14S,17S)-10-Fluoro-3-hydroxy-3,13-dimethylhexadecahydro-1H-cyclopenta[a]phenanthren-17-yl)-2-oxoethyl)benzenesulfonamide] as the molecule, how does the IC50 read?
Answer: Its IC50 is 49 nM.
